Measured values taken from patent publication US12338220B2, “Antiviral pyrazolopiridinone compounds” (Novartis AG, priority 2019, dated 2025).
Where two headings read alike, the source gives them in different places.

Tests used:
CMV-polymerase = CMV-polymerase (Human cytomegalovirus (strain AD169) (HHV-5) (Human herpesvirus 5), UniProt P08546); test: biochemical
CMV = test: microbe, parasite or virus in culture; format: cell-based; conditions: Human betaherpesvirus 5, 72 h, read-out: CMV-Luc Cellular EC50, NN-NHDF cells, MOI 1, 72 hrs
HSV-polymerase = HSV-polymerase (Human herpesvirus 1 (strain 17) (HHV-1) (Human herpes simplex virus 1), UniProt P04293); test: biochemical
[1] = CMV-polymerase Biochemical IC50
[2] = read-out: CMV-polymerase Biochemical IC50

Row | SMILES | IC50 (CMV-polymerase; [1]) [nM] | EC50 (CMV) [nM] | IC50 (HSV-polymerase) [nM] | IC50 (CMV-polymerase; [2]) [nM]
1 | Cn1nc(C(=O)NCc2ccc(C#N)cc2)c2c1C(=O)N(CC1(S(=O)(=O)C(C)(C)COC(F)CO)CC1)CC2 (single isomer, unassigned) [Example 80, (R)- or (S)-N-(4-Cyanobenzyl)-6-((1-((1-(1-fluoro-2-hydroxyethoxy)-2-methylpropan-2-yl)sulfonyl)cyclopropyl)methyl)-1-methyl-7-oxo-4,5,6,7-tetrahydro-1H-pyrazolo[3,4-c]pyridine-3-carboxamide] | 6 | 36 | 67 | –
2 | CC(O)COCC(C)(C)S(=O)(=O)C1(CN2CCc3c(C(=O)NCc4ccc(C#N)cc4)nn(C)c3C2=O)CC1 (single isomer, unassigned) [Example 90, (R)- or (S)-N-(4-Cyanobenzyl)-6-((1-((1-(2-hydroxypropoxy)-2-methylpropan-2-yl)sulfonyl)cyclopropyl)methyl)-1-methyl-7-oxo-4,5,6,7-tetrahydro-1H-pyrazolo[3,4-c]pyridine-3-carboxamide] | 7 | 58 | 97 | –
3 | CC(O)CC(C)(C)S(=O)(=O)C1(CN2CCc3c(C(=O)NCc4ccc(C#N)cc4)nn(C)c3C2=O)CC1 (single isomer, unassigned) [Example 115, (R)- or (S)-N-(4-Cyanobenzyl)-6-((1-((4-hydroxy-2-methylpentan-2-yl)sulfonyl)cyclopropyl)methyl)-1-methyl-7-oxo-4,5,6,7-tetrahydro-1H-pyrazolo[3,4-c]pyridine-3-carboxamide] | 3 | 59 | 71 | –
4 | COCC(C)(CO)S(=O)(=O)C1(CN2CCc3c(C(=O)NCc4ccc(C#N)cc4)nn(C)c3C2=O)CC1 (single isomer, unassigned) [Example 181, (R)- or (S)-N-(4-Cyanobenzyl)-6-((1-((1-hydroxy-3-methoxy-2-methylpropan-2-yl)sulfonyl)cyclopropyl)methyl)-1-methyl-7-oxo-4,5,6,7-tetrahydro-1H-pyrazolo[3,4-c]pyridine-3-carboxamide] | 4 | 77 | 69 | –
5 | COCC(C)(CO)S(=O)(=O)C1(CN2CCc3c(C(=O)NCc4ccc(C#N)cc4)nn(C)c3C2=O)CC1 (single isomer, unassigned) [Example 182, (R)- or (S)-N-(4-Cyanobenzyl)-6-((1-((1-hydroxy-3-methoxy-2-methylpropan-2-yl)sulfonyl)cyclopropyl)methyl)-1-methyl-7-oxo-4,5,6,7-tetrahydro-1H-pyrazolo[3,4-c]pyridine-3-carboxamide] | 2 | – | 46 | –
6 | Cn1nc(C(=O)NCc2ccc(C#N)cc2)c2c1C(=O)N(CC1(S(=O)(=O)C3(C(O)CO)CC3)CC1)CC2 (single isomer, unassigned) [Example 194, (R)- or (S)-N-(4-Cyanobenzyl)-6-((1-((1-(1,2-dihydroxyethyl)cyclopropyl)sulfonyl)cyclopropyl)methyl)-1-methyl-7-oxo-4,5,6,7-tetrahydro-1H-pyrazolo[3,4-c]pyridine-3-carboxamide] | 1 | 50 | 20 | –
7 | Cn1nc(C(=O)NCc2ccc(C#N)cc2)c2c1C(=O)N(CC1(S(=O)(=O)C(C)(C)C(O)C(C)(C)N)CC1)CC2 (single isomer, unassigned) [Example 211, (R)- or (S)-6-((1-((4-Amino-3-hydroxy-2,4-dimethylpentan-2-yl)sulfonyl)cyclopropyl)methyl)-N-(4-cyanobenzyl)-1-methyl-7-oxo-4,5,6,7-tetrahydro-1H-pyrazolo[3,4-c]pyridine-3-carboxamide] | 9 | – | 77 | –
8 | Cn1nc(C(=O)NCc2ccc(C#N)cc2)c2c1C(=O)N(CC1(S(=O)(=O)C(C)(C)C(O)C(C)(C)N)CC1)CC2 (single isomer, unassigned) [Example 212, (R)- or (S)-6-((1-((4-Amino-3-hydroxy-2,4-dimethylpentan-2-yl)sulfonyl)cyclopropyl)methyl)-N-(4-cyanobenzyl)-1-methyl-7-oxo-4,5,6,7-tetrahydro-1H-pyrazolo[3,4-c]pyridine-3-carboxamide] | 3 | – | 39 | –
9 | CC(O)Cn1nc(C(=O)NCc2ccc(C#N)cc2)c2c1C(=O)N(CC1(S(=O)(=O)C3CC3)CC1)CC2 (single isomer, unassigned) [Example 225, (R)- or (S)-N-(4-cyanobenzyl)-6-((1-(cyclopropylsulfonyl)cyclopropyl)methyl)-1-(2-hydroxypropyl)-7-oxo-4,5,6,7-tetrahydro-1H-pyrazolo[3,4-c]pyridine-3-carboxamide] | 4 | 63 | 90 | –
10 | CC(O)Cn1nc(C(=O)NCc2ccc(C#N)cc2)c2c1C(=O)N(CC1(S(=O)(=O)C3CC3)CC1)CC2 (single isomer, unassigned) [Example 226, (R)- or (S)-N-(4-cyanobenzyl)-6-((1-(cyclopropylsulfonyl)cyclopropyl)methyl)-1-(2-hydroxypropyl)-7-oxo-4,5,6,7-tetrahydro-1H-pyrazolo[3,4-c]pyridine-3-carboxamide] | 2 | – | 101 | –
11 | Cn1nc(C(=O)NCc2ccc(C#N)cc2)c2ccn(CC3(S(=O)(=O)C4CC4)CC3)c(=O)c21 [Example 1, N-(4-cyanobenzyl)-6-((1-(cyclopropylsulfonyl)cyclopropyl)methyl)-1-methyl-7-oxo-6,7-dihydro-1H-pyrazolo[3,4-c]pyridine-3-carboxamide] | – | 124 | 269 | 10
12 | Cn1nc(C(=O)NCc2ccc(C#N)cc2)c2ccn(CC3(S(C)(=O)=O)CC3)c(=O)c21 [Example 2, N-(4-Cyanobenzyl)-1-methyl-6-((1-(methylsulfonyl)cyclopropyl)methyl)-7-oxo-6,7-dihydro-1H-pyrazolo[3,4-c]pyridine-3-carboxamide] | – | 536 | 1880 | 27
13 | Cn1nc(C(=O)NCc2ccc(Cl)nc2)c2c1C(=O)N(CC1(S(=O)(=O)C3CC3)CC1)CC2 [Example 7, N-((6-Chloropyridin-3-yl)methyl)-6-((1-(cyclopropylsulfonyl)cyclopropyl)methyl)-1-methyl-7-oxo-4,5,6,7-tetrahydro-1H-pyrazolo[3,4-c]pyridine-3-carboxamide] | 56 | 534 | 861 | –
14 | Cn1nc(C2=NO[C@@H](c3ccc(C#N)cc3)C2)c2c1C(=O)N(CC1(S(=O)(=O)C3CC3)CC1)CC2 [Example 32, (R)-4-(3-(6-((1-(Cyclopropylsulfonyl)cyclopropyl)methyl)-1-methyl-7-oxo-4,5,6,7-tetrahydro-1H-pyrazolo[3,4-c]pyridin-3-yl)-4,5-dihydroisoxazol-5-yl)benzonitrile] | 3 | 41 | 161 | –
15 | Cn1nc(C2=NO[C@H](c3ccc(C#N)cc3)C2)c2c1C(=O)N(CC1(S(=O)(=O)C3CC3)CC1)CC2 [Example 33, (S)-4-(3-(6-((1-(cyclopropylsulfonyl)cyclopropyl)methyl)-1-methyl-7-oxo-4,5,6,7-tetrahydro-1H-pyrazolo[3,4-c]pyridin-3-yl)-4,5-dihydroisoxazol-5-yl)benzonitrile] | 1190 | 9940 | > 25000 | –
16 | Cn1nc(C(=O)NCc2ccc(C#N)cc2)c2c1C(=O)N(CC1(S(=O)(=O)C(F)F)CC1)CC2 [Example 38, N-(4-Cyanobenzyl)-6-((1-((difluoromethyl)sulfonyl)cyclopropyl)methyl)-1-methyl-7-oxo-4,5,6,7-tetrahydro-1H-pyrazolo[3,4-c]pyridine-3-carboxamide] | – | 607 | 784 | 14
17 | [2H]C([2H])(O)C(C)(C)S(=O)(=O)C1(CN2CCc3c(C(=O)NCc4ccc(C#N)cc4)nn(C)c3C2=O)CC1 [Example 56, N-(4-Cyanobenzyl)-6-((1-((1-hydroxy-2-methylpropan-2-yl-1,1-d2)sulfonyl)cyclopropyl)methyl)-1-methyl-7-oxo-4,5,6,7-tetrahydro-1H-pyrazolo[3,4-c]pyridine-3-carboxamide] | 1 | 21 | 17 | –
18 | CC(=O)OCC(C)(C)S(=O)(=O)C1(CN2CCc3c(C(=O)NCc4ccc(C#N)cc4)nn(C)c3C2=O)CC1 [Example 57, 2-((1-((3-((4-Cyanobenzyl)carbamoyl)-1-methyl-7-oxo-4,5-dihydro-1H-pyrazolo[3,4-c]pyridin-6(7H)-yl)methyl)cyclopropyl)sulfonyl)-2-methylpropyl acetate] | – | 22 | 35 | 1
19 | Cn1nc(C(=O)NCc2ccc(C#N)cc2)c2c1C(=O)N(CC1(S(=O)(=O)C(C)(C)CNC=O)CC1)CC2 [Example 71, N-(4-Cyanobenzyl)-6-((1-((1-formamido-2-methylpropan-2-yl)sulfonyl)cyclopropyl)methyl)-1-methyl-7-oxo-4,5,6,7-tetrahydro-1H-pyrazolo[3,4-c]pyridine-3-carboxamide] | 1 | 95 | 33 | –
20 | CC(=O)NCC(C)(C)S(=O)(=O)C1(CN2CCc3c(C(=O)NCc4ccc(C#N)cc4)nn(C)c3C2=O)CC1 [Example 72, 6-((1-((1-Acetamido-2-methylpropan-2-yl)sulfonyl)cyclopropyl)methyl)-N-(4-cyanobenzyl)-1-methyl-7-oxo-4,5,6,7-tetrahydro-1H-pyrazolo[3,4-c]pyridine-3-carboxamide] | 2 | 83 | 51 | –
21 | Cn1nc(C(=O)NCc2ccc(Cl)cc2)c2c1C(=O)N(CC1(S(=O)(=O)C(C)(C)COCCN)CC1)CC2 [Example 93, 6-((1-((1-(2-Aminoethoxy)-2-methylpropan-2-yl)sulfonyl)cyclopropyl)methyl)-N-(4-chlorobenzyl)-1-methyl-7-oxo-4,5,6,7-tetrahydro-1H-pyrazolo[3,4-c]pyridine-3-carboxamide] | – | 5 | 25 | 1
